Data as given in a melting point compilation (Tetko et al.; mined from patent text by program, amines drawn as free bases though some values may be those of a salt).

Row | Compound | melting point [°C]
1 | COc1ccc(-c2ccc(C#N)cc2C(F)(F)F)cc1C=O | 116 to 118
2 | OC1CSC(Oc2ccc(-c3cnccc3F)nc2-c2cnccc2F)C(O)C1O (configuration not stated) | 209
3 | N#Cc1ccc(O)c(O)c1O | 172
4 | COc1ccc(C)cc1NC(=O)Nc1ccc(N2CCN(C(=O)Nc3ncccc3C)CC2)cc1 | 209 to 211
5 | CCC(Oc1cncc(Br)c1)C(=O)O (configuration not stated) | 100 to 102
6 | O=Cc1ccc(S(=O)(=O)CCCl)cc1 | 70 to 72
7 | Nc1nc(-n2cc(C(=O)O)c(=O)c3cc(F)c(F)c(Cl)c32)c(Cl)cc1F | 280
8 | O=C(CCl)NC1CCCc2sccc21 (configuration not stated) | 115 to 119
9 | COC(=O)NC(=O)Cc1nc(-c2cc(C(C)(C)C)c(O)c(C(C)(C)C)c2)oc1C | 125 to 127
10 | CC(=O)Nc1cc2c(cc1[N+](=O)[O-])OCCCO2 | 139 to 140
11 | CC(C)(C(C#N)=NO)S(C)(=O)=O | 139 to 141
12 | COc1cc2c(cc1OC)CC(=O)N(Cc1cccnc1)C=C2 | 144 to 146
13 | COc1cc(CCl)ccc1OCc1coc(-c2ccco2)n1 | 123 to 124
14 | Cc1ccc(-n2ncc(-c3ccc(S(C)(=O)=O)cc3)cc2=O)cc1 | 190 to 192
15 | O=Cc1cc(Br)c(C=O)cc1Br | 184 to 189
16 | COc1nc(N)nc2c1ncn2COC(CO)CO | 162 to 163
17 | C=CCOCCOC(=O)c1cc(-n2c(OC)nc(C(F)(F)F)cc2=O)c(F)cc1Cl | 74 to 77
18 | CC1=NC(C)(C)N(O)C1(C)C | 127 to 128
19 | C=CCC1(C)OC(=O)Nc2ccc(-c3cccc(Cl)c3)cc21 (configuration not stated) | 128 to 129
20 | CCCc1nc2c(N)nc(C)c(C)c2n1Cc1cc(-c2ccc(F)cc2)no1 | 227 to 229
21 | COC(=O)C1CCC2C3CC(O)C4(O)CC(O)CCC4(C)C3CCC12C (configuration not stated) | 266 to 268
22 | COC(=N)CCCCc1csc(NC(=N)N)n1 | 143 to 145

Row | Compound | melting point [°C]
23 | O=C(Nc1ccc(CN2CCCCC2)cc1)C(Br)C(Br)c1ccc(-c2ccc(Cl)cc2)cc1 (configuration not stated) | 145 to 150
24 | CCCN(CCC)Cc1coc(-c2ncn3c2CN(C)C(=O)c2ccccc2-3)n1 | 109 to 110
25 | CC(O)(CCCC(F)(F)C(F)(F)C(F)(F)C(F)(F)C(F)(F)C(F)(F)F)CCCC(F)(F)C(F)(F)C(F)(F)C(F)(F)C(F)(F)C(F)(F)F | 46 to 47
26 | COc1ccc2c(c1)C=C(C(=O)N1CCN(C(=O)c3cc(OC)c(OC)c(OC)c3)CC1)CCO2 | 110 to 115
27 | CN(C)CC1CCc2cc(NC(=O)N3CCC(c4ccc(F)cc4)CC3)ccc2C1O (configuration not stated) | 160 to 163
28 | CCOC(=O)C1=C(COCc2nnn[nH]2)NC(C)=C(C(=O)OC)C1c1cccc(Cl)c1Cl (configuration not stated) | 112 to 114
29 | CCc1c2nc(-c3cc(S(C)(=O)=O)ccc3OCC(C)C)[nH]c(=O)c2nn1Cc1nccn1C | 253 to 254
30 | Cc1cc(-c2ccc(S(N)(=O)=O)cc2)n(-c2ccc(S(C)=O)cc2)c1 (configuration not stated) | 249 to 251
31 | O=C1NC(=O)C2(CCCCC2)N1c1cccnc1 | 264 to 266
32 | CNC(=O)n1sc(OC(C)C)nc1=O | 95
33 | COc1ccc2c(c1Cl)CCCC2=O | 130 to 131
34 | COC(=O)CC(=O)C1CCC2C3CCC4CC(O)CCC4(C)C3C(=O)CC12C (configuration not stated) | 150 to 152
35 | Oc1ccc(O)c(C(F)(F)F)c1 | 114 to 115
36 | CCC(=O)Nc1ccc(NC(=O)CN2CCN(CCCCC(c3ccc(F)cc3)c3ccc(F)cc3)C(C(N)=O)C2)c(C(C)=O)c1 (configuration not stated) | 163
37 | COC(=O)COc1ccc2cc(CNC(=O)c3cnn(-c4ccc(Cl)cc4)c3C(F)(F)F)ccc2c1Br | 206 to 207
38 | CCOC(=O)C1=C(NC(=O)Nc2cc(C(=O)OC(C)C)c(Cl)cc2F)CCCC1 | 129 to 130
39 | CCCn1c(N)c(N=Cc2ccc(OCC(=O)O)cc2)c(=O)n(CCC)c1=O | 179 to 180
40 | CCOC(C)OCC(C)C1CCC2C3C=CC4=CC(=O)C5OC5C4(C)C3CCC12C (configuration not stated) | 91 to 93
41 | CC(=O)Oc1cc(O)c(C=O)c(OC(C)=O)c1 | 103 to 105
42 | CCOC(=O)C1CN(C)c2nc3cc(F)c(F)cc3cc2C1=O (configuration not stated) | 188
43 | CC(=O)OCCN1CSC(=Cc2cc(C(C)(C)C)c(O)c(C(C)(C)C)c2)C1=O | 152 to 155
44 | Cn1nc(-c2ccc(OC(F)(F)F)cc2)cc1CBr | 70 to 71

Continued, values first:

Row | melting point [°C] | Compound
45 | 69 to 71 | CCOC(=O)c1cc(=O)c2c(OCC(O)CSC)cccc2o1 (configuration not stated)
46 | 123 to 124 | COCOc1ccc(OCc2ccc(OCc3nc(-c4ccccc4)oc3C)cc2)c(CC#N)c1
47 | 165 to 166 | CCCOc1ccccc1-c1nc(O)cc(C(=O)NC)n1
48 | 208 to 212 | CC(Oc1ccc(C(=O)c2ccc(O)cc2)c(Cl)c1Cl)C(=O)O (configuration not stated)
49 | 159 | CC(=O)CC(=O)Nc1cccc(OC(=O)NC2CCCCC2)c1
50 | 76 to 78 | COC(=O)c1ccc(C#N)s1
51 | 240 | O=P1(O)Oc2ccccc2-c2cc(F)ccc21
52 | 47 to 48 | CC(=O)S[C@@H](CCc1ccccc1C)C(=O)O
53 | 148 to 149 | COc1ccc(CNc2n[nH]c(N)c2C#N)cc1
54 | 118 to 120 | CC(C)(CCc1ccc(OCCO)cc1)NCC(O)c1ccccc1 (configuration not stated)
55 | 166 to 168 | O=C(c1ccccc1)N(CC(=O)N1c2ccccc2N(Cc2ccccc2)C(=O)[C@H]2CCC[C@H]21)Cc1ccccc1 (relative stereo)
56 | 144 to 146 | COC(=O)c1ccc(NC(=O)CBr)cc1
57 | 132 to 133 | Fc1cccc(F)c1COc1cccnc1NC(=S)Nc1ccccc1
58 | 198 | CC(C)c1cccc(C(C)C)c1NC(=O)NCC1(Nc2ccc(-c3ccccc3)cc2)CCCC1
59 | > 260 | COc1ccc2c(c1)C(=O)c1sc(-c3ccccc3)nc1C2=O
60 | 133 to 138 | CSc1ccc(CCOCCCCCC(C)NCC(O)c2ccc(O)c(NS(C)(=O)=O)c2)cc1 (configuration not stated)
61 | 59 | CCOC(=O)C(O)c1cc(Br)cn1CCOC(C)=O (configuration not stated)
62 | 224 to 225 | Cc1cc2ccccc2c(Oc2ccc(/C=C/C(=O)O)cc2)c1-c1ccccc1
63 | 78 to 79 | CCC1C(=O)Oc2c(Oc3ccccc3Cl)cccc21 (configuration not stated)
64 | 115 to 117 | CC(=O)Nc1nc(-c2ccc(F)c3ccccc23)cc(C(C)C)n1

Row | melting point [°C] | Compound
65 | 74 to 75 | C(=C1CCc2cccnc21)c1ccccc1
66 | 206 to 207 | O=C(N[C@H](Cc1ccc(C(F)(F)F)cc1)[C@@H](O)c1ccoc1)c1ccc(F)c2ccccc12 (racemic)
67 | 232 to 234 | Cc1cc(SC2=C(O)C[C@@](CCc3ccc(O)cc3)(C(C)C)OC2=O)c(C(C)C)c2sc(N)nc12
68 | > 220 | O=C(O)Cc1ccc2c(c1)C(=O)c1cc3ccccc3cc1C2=O
69 | 210 | Cc1ccc(C(=C2CN(C(c3ccccc3)c3ccccc3)C2)S(C)(=O)=O)cc1
70 | 192 to 193 | COC1(O)C=C(O)C(C(O)C(=O)c2ccccc2)=CC1 (configuration not stated)
71 | 119 to 121 | CNC(=S)OCc1nc(C(C)C)c(Sc2cc(Cl)cc(Cl)c2)n1C
72 | 98.6 | CC(C)NC(C(N)=S)c1ccccc1 (configuration not stated)
73 | 120 to 122 | Cc1ccc(S(=O)(=O)C(=[N+]=[N-])C(=O)C(C)(C)C)cc1
74 | 147 to 148 | CC(C)(C)OC(=O)CN1CCN(c2ccncc2)C1=O
75 | 272 | Cn1ncc2[nH]c3ccc(Cc4ccccc4C(N)=O)cc3c(=O)c21
76 | 62 to 67 | Cc1ccc(OCC(O)CNC(C)C)nc1 (configuration not stated)
77 | 241 to 242 | O=C(O)c1[nH]c2cc(Br)c(Cl)cc2c1-c1ccccc1
78 | 112 to 114 | Cc1cccc(C)c1NC(=O)CS(C)=O (configuration not stated)
79 | 126 | CC(CN1CCCC1)Oc1ccccc1CC(=O)N1CC2C(C1)C(c1ccccc1)(c1ccccc1)CCS2=O (racemic)
80 | 122 to 123 | CC(=O)N1c2ccccc2[C@H](Nc2ccccc2C(=O)O)C[C@@H]1C (relative stereo)
81 | 112 to 115 | Cc1c(SCc2ccc(-c3ccccc3)cc2)cnn(C(C)(C)C)c1=O
82 | 63 to 71 | CCC1CCCCc2c1oc(=O)c(C(c1ccccc1)C1CC1)c2O (configuration not stated)
83 | 136 to 138 | O=[N+]([O-])c1ccccc1S(=O)(=O)c1ccc(Cl)cc1
84 | 160 | Cc1cc(Br)cc(C(=O)Nc2ccc(F)cn2)n1

Row | melting point [°C] | Compound
85 | 71 to 73 | COc1cc(C(C)C)c2c(c1)S(=O)(=O)N(COC(=O)c1cccc(O)c1)C2=O
86 | 108 | COCCn1c(SC)nc(-c2ccc(F)cc2)c1-c1ccnc(Nc2ccccc2)c1
87 | 76 to 77 | COc1ccccc1CCC1CNC(=O)O1 (configuration not stated)
88 | 73 to 74 | CCN(CC)c1nc(C#N)c(C#N)nc1Cc1ccccc1
89 | 193 to 194 | Cc1c(Cc2cccc(C(F)(F)F)c2)sc2c(-c3cc(C(N)=O)ccn3)cccc12
90 | 167 to 172 | CCC(=O)c1cc(C2(c3cccc(-c4cncnc4)c3)N=C(N)N(C)C2=O)cs1 (configuration not stated)
91 | 164 to 165 | CCCCc1nc2ccc(C)c(C(=O)OCC)c2n1Cc1ccc(-c2ccccc2-c2nnn[nH]2)cc1
92 | 169 to 170 | O=C(O)Cn1ncc(-c2ccccc2)c1-c1ccccc1
93 | 41 to 43 | COc1ccc(C2(OC)OC2(C)C)cc1 (configuration not stated)
94 | 126 to 128 | CCOC(=O)C(Cc1ccc(OC)c(OC)c1)NC(=O)c1ccc(OC(C)C)cc1 (configuration not stated)
95 | 172 to 175 | O=S(=O)(Nc1ccc2ccc(OCc3ccc4ccccc4n3)cc2c1)C(F)(F)F
96 | 175 | CCOC(=O)N1CCCC(Nc2nc3ccccc3[nH]2)CC1 (configuration not stated)
97 | 163 to 164 | N#Cc1ccccc1-c1ccc(CNC(=S)NN)cc1
98 | 175 to 176 | CC(=O)O[C@@H]1OCC[C@@H]1NC(=O)[C@H](Cc1ccccc1)NC(=O)OCc1ccccc1
99 | 180 to 182 | O=C1C[C@]2(c3ccccc3)CCCC[C@H]2C(=O)N1 (relative stereo)
100 | 67 to 69 | Cc1cccc(C(=O)Cc2ccnc(NC(=O)c3ccccc3)c2)c1
101 | 150 to 152 | CC(C)c1cccc(C(C)C)c1N=C(Nc1c(C(C)C)cccc1C(C)C)ON=C1CCCCC1
102 | 90 to 92 | CN(C)CCCN(c1ccccc1)c1ncccc1NC(=O)c1ccccc1Cl
